Data published in patent US9422240B2, “Partially saturated nitrogen-containing heterocyclic compound” (TAISHO PHARMACEUTICAL CO., LTD, priority 2012, dated 2016).
Counter-ions that a name gives are not always drawn. Like-named read-outs stand apart in the source and are kept apart here.

Biological target: human PHD2 (Homo sapiens (Human), UniProt Q9GZT9)
Test: Test 2: human PHD2 inhibitory activity, fluorescence polarization assay of HIF-1α peptide proline hydroxylation
Format: biochemical
Conditions: for inhibition at 1 µM: read-out: Percent inhibition (% at 1 μM); for IC50: human PHD2, fluorescence polarization assay, 20-min incubation at 30° C.
Protocol: (1) Expression and Preparation of Human PHD2
A registered sequence of human PHD2 (NM_022051) was introduced into pcDNA3.1/Hygro(+) vector (Invitrogen), and the sequence was verified. […] The suspension of disrupted cells was centrifuged at 4° C. and 100,000×g for 30 minutes and the supernatant was recovered as a cell lysate.
(2) Measurement of Human PHD2 Inhibitory Activity
The activity of human PHD2 enzyme was measured with a substrate which is a 19-residue partial peptide based on the sequence of HIF-1α; specifically, the hydroxylation of a proline residue in the peptide was measured by FP (Fluorescence Polarization).
A test compound and the substrate solution were preliminarily added onto 384-well plates and reaction was initiated by adding a human PHD2 enzyme solution (40 ng/well). After 20-min incubation at 30° C., an EDTA-containing quench solution was added and the amount of the proline residues hydroxylated via binding to an added HIF—OH antibody solution was quantified by fluorescence polarization.
The fluorescence polarization of each well was measured and the human PHD2 inhibitory activity of each test compound was calculated on the basis of the values for the test compound-free group.

[1] = test compound's concentration 1 μM, Test 2, fluorescence polarization assay

human PHD2, sequence (Q9GZT9 whole entry): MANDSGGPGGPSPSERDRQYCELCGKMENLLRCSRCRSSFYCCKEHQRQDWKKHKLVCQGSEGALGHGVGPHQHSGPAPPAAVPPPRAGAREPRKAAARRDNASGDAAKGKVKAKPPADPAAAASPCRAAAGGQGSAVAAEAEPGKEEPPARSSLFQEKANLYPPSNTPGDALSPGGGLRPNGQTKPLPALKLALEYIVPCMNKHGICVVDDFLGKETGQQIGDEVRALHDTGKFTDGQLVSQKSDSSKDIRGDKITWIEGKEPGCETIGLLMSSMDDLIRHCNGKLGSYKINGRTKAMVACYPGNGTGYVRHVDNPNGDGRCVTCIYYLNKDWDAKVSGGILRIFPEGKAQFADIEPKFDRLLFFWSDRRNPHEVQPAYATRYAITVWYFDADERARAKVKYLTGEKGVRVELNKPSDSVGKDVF

SMILES | inhibition at 1 µM [1] [%] | other results
O=C(O)CNC(=O)C1=C(O)CCN(Cc2ccc(COc3ccc(C(F)(F)F)nc3)cc2)C1=O [Ex. 1-423] | 96 | 
O=C(O)CNC(=O)C1=C(O)CCN(Cc2ccc(COc3ccc(C(F)(F)F)cn3)cc2)C1=O [Ex. 1-424] | 97 | 
COc1cccnc1-c1ccc(CN2CCC(O)=C(C(=O)NCC(=O)O)C2=O)cc1 [Ex. 1-425] | 90 | 
COc1ccc(-c2ccc(CN3CCC(O)=C(C(=O)NCC(=O)O)C3=O)cc2)nc1 [Ex. 1-426] | 88 | 
O=C(O)CNC(=O)C1=C(O)CCN(CC2CCC(OCc3ccc(Cl)cc3)CC2)C1=O (stereo not shown) [Ex. 1-427] | 95 | 
O=C(O)CNC(=O)C1=C(O)CCN(C[C@H]2CC[C@H](Oc3ccc(Cl)cc3)CC2)C1=O [Ex. 1-428] | 100 | 
O=C(O)CNC(=O)C1=C(O)CCN(C[C@H]2CC[C@H](OCc3ccc(Cl)cc3)CC2)C1=O [Ex. 1-429] | 96 | 
Cc1ccc(O[C@H]2CC[C@H](CN3CCC(O)=C(C(=O)NCC(=O)O)C3=O)CC2)cc1 [Ex. 1-430] | 95 | 
CCc1ccc(O[C@H]2CC[C@H](CN3CCC(O)=C(C(=O)NCC(=O)O)C3=O)CC2)cc1 [Ex. 1-431] | 99 | 
O=C(O)CNC(=O)C1=C(O)CCN(C[C@H]2CC[C@H](Oc3ccc(Cl)cn3)CC2)C1=O [Ex. 1-432] | 93 | 
O=C(O)CNC(=O)C1=C(O)CCN(C[C@H]2CC[C@@H](Oc3ccc(F)cn3)CC2)C1=O [Ex. 1-433] | 76 | 
O=C(O)CNC(=O)C1=C(O)CCN(C[C@H]2CC[C@@H](Oc3ccc(F)cc3)CC2)C1=O [Ex. 1-434] | 85 | 
Cc1ccc(O[C@H]2CC[C@H](CN3CCC(O)=C(C(=O)NCC(=O)O)C3=O)CC2)nc1 [Ex. 1-435] | 87 | 
COc1ccnc(-c2ccc(CN3CCC(O)=C(C(=O)NCC(=O)O)C3=O)cc2)c1 [Ex. 1-436] | 85 | 
O=C(O)CNC(=O)C1=C(O)CCN(C[C@H]2CC[C@H](Oc3ccc(C(F)(F)F)cn3)CC2)C1=O [Ex. 1-437] | 92 | 
O=C(O)CNC(=O)C1=C(O)CCN(C[C@H]2CC[C@H](OCc3ccc(F)cc3)CC2)C1=O [Ex. 1-438] | 90 | 
O=C(O)CNC(=O)C1=C(O)CCN(C[C@H]2CC[C@H](Oc3ccccn3)CC2)C1=O [Ex. 1-439] | 81 | 
O=C(O)CNC(=O)C1=C(O)CCN(Cc2cnc(Oc3ccc(Cl)cc3)cn2)C1=O [Ex. 1-440] | 98 | IC50: 39 nM
O=C(O)CNC(=O)C1=C(O)CCN(C[C@H]2CC[C@H](Oc3ccc(C4CC4)cc3)CC2)C1=O [Ex. 1-442] | 98 | 
O=C(O)CNC(=O)C1=C(O)CCN(Cc2cnc(Oc3ccc(C4CC4)cc3)cn2)C1=O [Ex. 1-443] | 101 | IC50: 21 nM
O=C(O)CNC(=O)C1=C(O)CCN(C[C@H]2CC[C@H](OCc3ccccc3)CC2)C1=O [Ex. 1-444] | 88 | 
O=C(O)CNC(=O)C1=C(O)CCN(C[C@H]2CC[C@H](OCC3CC3)CC2)C1=O [Ex. 1-445] | 75 | 
O=C(O)CNC(=O)C1=C(O)CCN(C[C@H]2CC[C@H](Oc3ccc(C4CC4)cn3)CC2)C1=O [Ex. 1-446] | 94 | 

SMILES | inhibition at 1 µM [1] [%] | other results
O=C(O)CNC(=O)C1=C(O)CCN(C[C@H]2CC[C@H](OCCc3ccccc3)CC2)C1=O [Ex. 1-447] | 98 | 
O=C(O)CNC(=O)C1=C(O)CCN(C[C@H]2CC[C@H](OCC3CCCC3)CC2)C1=O [Ex. 1-448] | 92 | 
CCc1ccc(O[C@H]2CC[C@H](CN3CCC(O)=C(C(=O)NCC(=O)O)C3=O)CC2)nc1 [Ex. 1-449] | 99 | 
Cc1ccc(CO[C@H]2CC[C@H](CN3CCC(O)=C(C(=O)NCC(=O)O)C3=O)CC2)cc1 [Ex. 1-450] | 97 | 
O=C(O)CNC(=O)C1=C(O)CCN(C[C@H]2CC[C@H](OC3CCC3)CC2)C1=O [Ex. 1-451] | 82 | 
CC(Cc1ccc(Cl)cc1)N1CCC(O)=C(C(=O)NCC(=O)O)C1=O (stereo not shown) [Ex. 1-452] | 67 | 
O=C(O)CNC(=O)C1=C(O)CCN(Cc2ccc(C3CCCCC3)c(F)c2)C1=O [Ex. 1-453] | 94 | 
O=C(O)CNC(=O)C1=C(O)CCN(C[C@H]2C[C@H](Oc3ccc(Cl)cc3)C2)C1=O [Ex. 1-454] | 95 | 
O=C(O)CNC(=O)C1=C(O)CCN(C[C@H]2C[C@@H](Oc3ccc(Cl)cc3)C2)C1=O [Ex. 1-456] | 98 | 
O=C(O)CNC(=O)C1=C(O)CCN(C[C@H]2C[C@H](OCc3ccc(Cl)cc3)C2)C1=O [Ex. 1-457] | 94 | 
Cc1ccc(O[C@H]2C[C@H](CN3CCC(O)=C(C(=O)NCC(=O)O)C3=O)C2)cc1 [Ex. 1-458] | 89 | 
O=C(O)CNC(=O)C1=C(O)CCN(C[C@H]2C[C@H](Oc3ccc(C(F)(F)F)cc3)C2)C1=O [Ex. 1-459] | 96 | 
O=C(O)CNC(=O)C1=C(O)CCN(C[C@H]2C[C@H](Oc3cccc(Cl)c3)C2)C1=O [Ex. 1-460] | 92 | 
O=C(O)CNC(=O)C1=C(O)CCN(Cc2ccc(OCn3nnc4ccccc43)cc2)C1=O [Ex. 1-461] | 95 | 
Cc1cc(C)n(COc2ccc(CN3CCC(O)=C(C(=O)NCC(=O)O)C3=O)cc2)n1 [Ex. 1-462] | 87 | 
Cn1nc2ccccc2c1COc1ccc(CN2CCC(O)=C(C(=O)NCC(=O)O)C2=O)cc1 [Ex. 1-463] | 99 | 
O=C(O)CNC(=O)C1=C(O)CCN(C[C@H]2CC[C@H](OCc3ccc(Cl)cn3)CC2)C1=O [Ex. 1-464] | 87 | 
O=C(O)CNC(=O)C1=C(O)CC(CO)(CCl)N(Cc2ccc(-c3ccccc3)cc2)C1=O (stereo not shown) [Ex. 1-465, N-{[1-(4-Biphenylylmethyl)-6-(chloromethyl)-4-hydroxy-6-(hydroxymethyl)-2-oxo-1,2,5,6-tetrahydro-3-pyridinyl]carbonyl}glycine] | 80 | 
O=C(O)CNC(=O)C1=C(O)CCN(Cc2ccc(O)c(Cl)c2)C1=O [Ex. 1-466, N-{[1-(3-Chloro-4-hydroxybenzyl)-4-hydroxy-2-oxo-1,2,5,6-tetrahydro-3-pyridinyl]carbonyl}glycine disodium] | 77 | 
O=C(O)CNC(=O)C1=C(O)CCN(Cc2ccc(C3=CCC(F)(F)CC3)cc2)C1=O [Ex. 1-467, N-({1-[4-(4,4-difluoro-1-cyclohexen-1-yl)benzyl]-4-hydroxy-2-oxo-1,2,5,6-tetrahydro-3-pyridinyl}carbonyl)glycine sodium salt] |  | inhibition at 1 µM: 95%
Cc1cc(CN2CCC(O)=C(C(=O)NCC(=O)O)C2=O)ccc1OCC1CC1 [Ex. 1-468, N-({1-[4-(Cyclopropylmethoxy)-3-methylbenzyl]-4-hydroxy-2-oxo-1,2,5,6-tetrahydro-3-pyridinyl}carbonyl)glycine sodium salt] |  | inhibition at 1 µM: 85%
Cc1ccc(-c2ccc(CN3CCC(O)=C(C(=O)NCC(=O)O)C3=O)cc2)cn1 [Ex. 2-4, N-({4-Hydroxy-1-[4-(6-methyl-3-pyridinyl)benzyl]-2-oxo-1,2,5,6-tetrahydro-3-pyridinyl}carbonyl)glycine sodium salt] |  | inhibition at 1 µM: 88%
Cc1ccc(-c2ccc(CN3CCC(O)=C(C(=O)NCC(=O)O)C3=O)cc2)nc1 [Ex. 2-5, N-({4-Hydroxy-1-[4-(5-methyl-2-pyridinyl)benzyl]-2-oxo-1,2,5,6-tetrahydro-3-pyridinyl}carbonyl)glycine sodium salt] |  | inhibition at 1 µM: 97%

Second part, led by results:

inhibition at 1 µM [1] [%] | SMILES | other results
98 | COc1cnccc1-c1ccc(CN2CCC(O)=C(C(=O)NCC(=O)O)C2=O)cc1 [Ex. 2-2, N-({4-Hydroxy-1-[4-(3-methoxy-4-pyridinyl)benzyl]-2-oxo-1,2,5,6-tetrahydro-3-pyridinyl}carbonyl)glycine sodium salt] | 
92 | COc1ncccc1-c1ccc(CN2CCC(O)=C(C(=O)NCC(=O)O)C2=O)cc1 [Ex. 2-3, N-({4-Hydroxy-1-[4-(2-methoxy-3-pyridinyl)benzyl]-2-oxo-1,2,5,6-tetrahydro-3-pyridinyl}carbonyl)glycine sodium salt] | 
93 | CS(=O)(=O)c1ccc(-c2ccc(CN3CCC(O)=C(C(=O)NCC(=O)O)C3=O)cc2)cc1 [Ex. 2-31] | 
85 | CN(C)C(=O)c1ccc(-c2ccc(CN3CCC(O)=C(C(=O)NCC(=O)O)C3=O)cc2)cc1 [Ex. 2-32] | 
91 | O=C(O)CNC(=O)C1=C(O)C2(CCCCC2)N(Cc2ccc(-c3ccc(Cl)cc3)cc2)C1=O [Ex. 2-33] | 
97 | O=C(O)CNC(=O)C1=C(O)CCN(Cc2ccc(-c3ccc(C(=O)O)cc3)cc2)C1=O [Ex. 2-34] | 
96 | COc1ccc(-c2ccc(CN3CCC(O)=C(C(=O)NCC(=O)O)C3=O)cn2)cc1 [Ex. 2-35] | 
95 | O=C(O)CNC(=O)C1=C(O)CCN(Cc2ccc(-c3ccc(OC(F)(F)F)cc3)nc2)C1=O [Ex. 2-36] | 
91 | O=C(O)CNC(=O)C1=C(O)CCN(Cc2ccc(-c3ccc(F)cc3)nc2)C1=O [Ex. 2-37] | 
92 | COc1ccc(-c2ccc(CN3CCC(O)=C(C(=O)NCC(=O)O)C3=O)nc2)cc1 [Ex. 2-38] | 
93 | O=C(O)CNC(=O)C1=C(O)CCN(Cc2ccc(-c3ccc(OC(F)(F)F)cc3)cn2)C1=O [Ex. 2-39] | 
96 | O=C(O)CNC(=O)C1=C(O)CCN(Cc2ccc(-c3ccc(C(F)(F)F)cc3)cn2)C1=O [Ex. 2-40] | 
93 | COc1cc(-c2ccc(CN3CCC(O)=C(C(=O)NCC(=O)O)C3=O)cc2)ccn1 [Ex. 2-41] | 
